Source: ChEMBL document CHEMBL1759949, “In vitro cytotoxicity of melleolide antibiotics: structural and mechanistic aspects” (Bioorg Med Chem Lett, 2011)
Calls of active or inactive are those of the source. The rule behind the calls is not given here. Starred links: 1 amine or outer side, 2 acyl side, 3 side chain; linkers in the order of their positions; H or OH if unused. Positions of bridges follow the written chain, without caps; N, C: chain ends. Non-standard residues stand in square brackets, D forms with d. Residues, ends and D or L forms follow the SMILES beside them. Chains are numbered I, II in the order given. Actinocin(1to9) = Cc1c2oc3c(C)ccc(C(=O)[*:2])c3nc-2c(C(=O)[*:1])c(N)c1=O; NMeV = CN[C@H](C(=O)O)C(C)C; Sar = CNCC(=O)O

Legend:
[1] = system: HeLa; test: Cytotoxicity against human HeLa cells; format: functional, cell-based
[2] = system: K562; test: Cytotoxicity against human K562 cells; format: functional, cell-based
[3] = system: Jurkat; test: Cytotoxicity against human Jurkat cells; format: functional, cell-based
[4] = system: MCF7; test: Cytotoxicity against human MCF7 cells; format: functional, cell-based
[5] = system: K562; test: Inhibition of transcription in human K562 cells at 3.5 uM after 120 mins; format: functional; set-up: scale not given: the % may be the effect or the level left
[6] = system: K562; test: Inhibition of protein synthesis in human K562 cells assessed as [14C]L-leucine incorporation at 3.5 uM after 120 mins; format: functional; set-up: scale not given: the % may be the effect or the level left
[7] = system: HeLa; test: Cytotoxicity against human HeLa cells at <=100 uM; format: functional, cell-based
[8] = system: MCF7; test: Cytotoxicity against human MCF7 cells at <=100 uM; format: functional, cell-based
[9] = system: Jurkat; test: Cytotoxicity against human Jurkat cells at <=100 uM; format: functional, cell-based
[10] = system: K562; test: Cytotoxicity against human K562 cells at <=100 uM; format: functional, cell-based
[11] = system: K562; test: Inhibition of transcription in human K562 cells at 4 uM after 120 mins; format: functional; set-up: scale not given: the % may be the effect or the level left
[12] = system: K562; test: Inhibition of DNA synthesis in human K562 cells assessed as [14C]thymidine incorporation at 4 uM after 120 mins; format: functional; set-up: scale not given: the % may be the effect or the level left
[13] = system: K562; test: Inhibition of protein synthesis in human K562 cells assessed as [14C]L-leucine incorporation at 0.47 uM after 120 mins; format: functional; set-up: scale not given: the % may be the effect or the level left
[14] = system: K562; test: Inhibition of transcription in human K562 cells at 0.47 uM after 120 mins; format: functional; set-up: scale not given: the % may be the effect or the level left
[15] = system: K562; test: Inhibition of DNA synthesis in human K562 cells assessed as [14C]thymidine incorporation at 0.47 uM after 120 mins; format: functional; set-up: scale not given: the % may be the effect or the level left
[16] = system: K562; test: Inhibition of DNA synthesis in human K562 cells assessed as [14C]thymidine incorporation at 5 uM after 60 mins; format: functional; set-up: scale not given: the % may be the effect or the level left
[17] = system: K562; test: Inhibition of DNA synthesis in human K562 cells assessed as [14C]thymidine incorporation at 5 uM after 120 mins; format: functional; set-up: scale not given: the % may be the effect or the level left
[18] = system: K562; test: Inhibition of cellular respiration in human K562 cells at 1.25 to 5 uM; format: functional, cell-based
[19] = system: K562; test: Inhibition of RNA synthesis in human K562 cells assessed as inhibition of [14C]uridine incorporation upto 5 uM after 120 mins; format: functional, cell-based
[20] = system: K562; test: Inhibition of protein synthesis in human K562 cells assessed as [14C]L-leucine incorporation at 5 uM after 60 mins; format: functional; set-up: scale not given: the % may be the effect or the level left
[21] = system: K562; test: Inhibition of protein synthesis in human K562 cells assessed as inhibition of [14C]L-leucine incorporation at 1.25 uM after 60 mins; format: functional, cell-based
[22] = system: K562; test: Inhibition of DNA synthesis in human K562 cells assessed as [14C]thymidine incorporation at 1.25 uM after 120 mins; format: functional; set-up: scale not given: the % may be the effect or the level left
[23] = system: K562; test: Inhibition of DNA synthesis in human K562 cells assessed as [14C]thymidine incorporation at 1.25 uM after 60 mins; format: functional; set-up: scale not given: the % may be the effect or the level left
[24] = system: K562; test: Inhibition of protein synthesis in human K562 cells assessed as [14C]L-leucine incorporation at 1.25 uM after 120 mins; format: functional; set-up: scale not given: the % may be the effect or the level left
[25] = system: K562; test: Inhibition of protein synthesis in human K562 cells assessed as [14C]L-leucine incorporation at 5 uM after 120 mins; format: functional; set-up: scale not given: the % may be the effect or the level left

Cc1c(Cl)c(O)cc(O)c1C(=O)O[C@@H]1C[C@]2(C)[C@H]3CC(C)(C)C[C@@]3(O)C=C(CO)[C@]12O
IC50 [1]: > 100 µM
IC50 [2]: > 100 µM
IC50 [3]: 46.6 µM
IC50 [4]: > 100 µM

COc1cc(O)c(C(=O)O[C@@H]2C[C@]3(C)[C@H]4CC(C)(C)C[C@H]4C=C(C=O)[C@]23O)c(C)c1Cl [ARMILLARIDIN]
IC50 [1]: 9.2 µM
IC50 [2]: 8.9 µM
IC50 [3]: 3 µM
IC50 [4]: 7.8 µM

C[C@@H]1C[C@@H]([C@H](O)CC2CC(=O)NC(=O)C2)C(=O)[C@@H](C)C1 [CYCLOHEXIMIDE]
Activity [5]: 99%
Activity [6]: 26%

COc1cc(O)c(C(=O)O[C@@H]2C[C@]3(C)[C@H]4CC(C)(C)C[C@H]4C=C(CO)[C@]23O)c(C)c1Cl
IC50 [1]: 40 µM
IC50 [2]: 38.9 µM
IC50 [3]: 10.4 µM
IC50 [4]: 21.3 µM

COc1cc(O)c(C(=O)O[C@@H]2C[C@]3(C)[C@H]4[C@@H](O)C(C)(C)C[C@@]4(O)C=C(CO)[C@]23O)c(C)c1Cl
Activity [7]: Not toxic
Activity [8]: Not toxic
Activity [9]: Not toxic
Activity [10]: Not toxic

COc1cc(O)c(C(=O)O[C@@H]2C[C@]3(C)[C@H]4CC(C)(CO)C[C@@]4(O)C=C(CO)[C@]23O)c(C)c1Cl (stereo not given in full)
Activity [7]: Not toxic
Activity [8]: Not toxic
Activity [9]: Not toxic
Activity [10]: Not toxic

Cc1cc(O)cc(O)c1C(=O)O[C@@H]1C[C@]2(C)[C@H]3CC(C)(C)C[C@@]3(O)C=C(CO)[C@]12O
Activity [7]: Not toxic
Activity [8]: Not toxic
Activity [9]: Not toxic
Activity [10]: Not toxic

COc1cc(O)c(C(=O)O[C@@H]2C[C@]3(C)[C@H]4CC(C)(C)C[C@H]4[C@H](O)[C@@H](CO)[C@]23O)c(C)c1Cl
IC50 [1]: 35.8 µM
IC50 [2]: 25 µM
IC50 [3]: 13.3 µM
IC50 [4]: 26.5 µM

COc1cc(O)c(C(=O)O[C@@H]2C[C@]3(C)[C@H]4CC(C)(C)C[C@H]4C=C(C=O)[C@]23OC)c(C)c1Cl
IC50 [1]: 18.8 µM
IC50 [2]: 20.6 µM
IC50 [3]: 4.1 µM
IC50 [4]: 6.7 µM

COc1cc(C)c(C(=O)O[C@@H]2C[C@]3(C)[C@H]4CC(C)(C)C[C@H]4C=C(C=O)[C@]23O)c(O)c1 [ARMILLARIN]
IC50 [1]: 16.7 µM
IC50 [2]: 9.9 µM
IC50 [4]: 11.6 µM

Cc1c2oc3c(C)ccc(C(=O)N[C@@H]4C(=O)N[C@H](C(C)C)C(=O)N5CCC[C@H]5C(=O)N(C)CC(=O)N(C)[C@@H](C(C)C)C(=O)O[C@@H]4C)c3nc-2c(C(=O)N[C@@H]2C(=O)N[C@H](C(C)C)C(=O)N3CCC[C@H]3C(=O)N(C)CC(=O)N(C)[C@@H](C(C)C)C(=O)O[C@@H]2C)c(N)c1=O [DACTINOMYCIN] (I: T[dV]P[Sar][NMeV] / II: T[dV]P[Sar][NMeV]; ester I:1-I:C, II:1-II:C; linker I:N-II:N via Actinocin(1to9))
Activity [11]: 2%
Activity [12]: 58%

COc1cccc2c1C(=O)c1c(O)c3c(c(O)c1C2=O)C[C@@](O)(C(=O)CO)C[C@@H]3O[C@H]1C[C@H](N)[C@H](O)[C@H](C)O1 [DOXORUBICIN]
Activity [13]: 89%
Activity [14]: 79%
Activity [15]: 46%

COc1cc(O)c(C(=O)OCC2=C[C@]3(O)CC(C)(C)[C@H](O)[C@@H]3[C@@]3(C)C[C@@H](O)[C@@]23O)c(C)c1Cl
Activity [7]: Not toxic
Activity [8]: Not toxic
Activity [9]: Not toxic
Activity [10]: Not toxic

Cc1cc(O)cc(O)c1C(=O)O[C@@H]1C[C@@]2(C)C1=C(C=O)[C@@H](O)[C@@H]1CC(C)(C)C[C@@H]12 [DEHYDROARMILLYLORSELLINATE]
Activity [16]: 70%
Activity [17]: 35%
IC50 [1]: 15.2 µM
inhibition [18]: inactive
inhibition [19]: inactive
Activity [20]: 76%
inhibition [21]: inactive
IC50 [2]: 5 µM
Activity [22]: 71%
Activity [23]: 90%
Activity [24]: 96%
IC50 [3]: 16.9 µM
Activity [25]: 35%
IC50 [4]: 8 µM
